# Assays:
# [1] = biological target: T1, p53 Y220C mutant protein (amino acid residues 94-293) (Homo sapiens, UniProt P04637, Y220C); experiment: Surface Plasmon Resonance (SPR) assay, Kd_kinetic; format: binding; conditions: SPR; p53 Y220C; read-out: SPR P53 Y220C KD kinetic
# T1 construct: p53 Y220C mutant protein (amino acid residues 94-293)
# Method in brief: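 Binding measured by SPR on a Biacore 8K in running buffer of 50 mM Tris pH 7.5, 100 mM NaCl, 1 mM DTT, 0.01% Brij35, 0.05% Tween-20, 1% DMSO.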
# [2] = biological target: T1, p53 Y220C mutant protein (amino acid residues 94-293); experiment: Thermal Shift Assay (TSA), dTM; format: binding; conditions: p53 Y220C, read-out: TSA P53 Y220C dTM; for ΔTm at 10 µM: 10 uM compound; for ΔTm at 100 µM: 100 uM compound
# Method in brief: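 5 μM p53 Y220C (residues 94-293) incubated 3 h at 20 °C with 10 μM or 100 μM compound in 20 mM HEPES pH 7.4, 100 mM NaCl, 0.01% Pluronic F-127, 1% DMSO plus Sypro Orange. Melt from 30 to 50 °C at 0.03 °C/s; TM from Boltzmann two-state fit.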
# p53 Y220C = p53 Y220C (Homo sapiens, UniProt P04637, Y220C); experiment: Luciferase Reporter Assay (Luc), p53 response element, NClH1299 cells with inducible p53 Y220C; format: cell-based; conditions: luciferase reporter, NClH1299 inducible p53 Y220C, 6 hour; for AC50: read-out: Luc P53 Y220C AC50
# Method in brief: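 H1299 cells induced with 0.5 ug/mL doxycycline for 24 hours, then exposed to compound for 6 hours. p53 response-element luciferase read by One-Glo luminescence after 5 min shaking at room temperature.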
# NUGC3 p53 Y220C = experiment: Cell Proliferation Assay (CellTiter-Glo, CTG), NUGC3 p53 Y220C; format: cell-based; conditions: Homo sapiens, NUGC-3, 120 h, NUGC3 cells, 5 days, CellTiter-Glo
# Method in brief: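 NClH1299 lines stably transduced with Tet-inducible p53 Y220C or R273H, plus NUGC3, were treated with compound for 5 days at 250-500 cells/well. IC50 derived from CellTiter-Glo luminescent signal after 10 min room-temperature incubation.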
# H1299 p53 Y220C = experiment: Cell Proliferation Assay (CellTiter-Glo, CTG), H1299 p53 Y220C (NClH1299-inducible p53 Y220C); format: cell-based; conditions: Homo sapiens, NCI-H1299, 120 h, NClH1299-inducible p53 Y220C cells, 5 days, CellTiter-Glo
# Method in brief: (§1)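 Cells seeded at 250-500 per well and exposed to compound for 5 days. Viability read by CellTiter-Glo luminescence after 10 min at room temperature; IC50 calculated. H1299 lines carry Tet-One inducible p53 mutant constructs introduced by lentiviral transduction.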
# H1299 p53 R273H = experiment: Cell Proliferation Assay (CellTiter-Glo, CTG), H1299 p53 R273H (NClH1299-inducible p53 R273H); format: cell-based; conditions: Homo sapiens, NCI-H1299, 120 h, NClH1299-inducible p53 R273H cells, 5 days, CellTiter-Glo
# Method in brief: as §1
Kd [1],ΔTm at 10 µM [2],ΔTm at 100 µM [2],AC50 (p53 Y220C),Emax (p53 Y220C),IC50 (H1299 p53 Y220C),IC50 (H1299 p53 R273H),Compound,IC50 (NUGC3 p53 Y220C)
< 0.01 µM,5 to 10 °C,≥ 10 °C,1.5 to 3 µM,70 to 80%,0.75 to 1.5 µM,≥ 10 µM,CNC(=O)c1ccc(NCC#Cc2nc3c(N[C@H]4CCN(C)C4)cccn3c2SC(F)(F)F)c(OC)c1 [Example 243],0.75 to 1.5 µM
< 0.01 µM,5 to 10 °C,≥ 10 °C,1.5 to 3 µM,< 70%,1.5 to 3 µM,8 to 10 µM,CNC(=O)c1ccc(OC)c(NCC#Cc2nc3c(N[C@H]4C[C@@H]5CC[C@H]4N5)cccn3c2SC(F)(F)F)c1 [Example 245],< 0.75 µM
< 0.01 µM,≥ 10 °C,–,< 0.75 µM,80 to 90%,< 0.75 µM,5 to 8 µM,CNC(=O)c1ccc(OC)c(NCC#Cc2nn3c(N[C@@H]4CNC[C@@H]4F)cccc3c2SC(F)(F)F)c1 [Example 250],< 0.75 µM
< 0.01 µM,≥ 10 °C,–,< 0.75 µM,80 to 90%,< 0.75 µM,≥ 10 µM,CNC(=O)c1ccc(OC)c(NCC#Cc2nn3c(N[C@@H]4CN(C)C[C@@H]4F)cccc3c2SC(F)(F)F)c1 [Example 252],< 0.75 µM
< 0.01 µM,≥ 10 °C,–,< 0.75 µM,80 to 90%,< 0.75 µM,≥ 10 µM,CNC(=O)c1ccc(OC)c(NCC#Cc2nn3c(N[C@@H]4CN(C)C[C@@H]4F)cccc3c2SC(F)(F)F)n1 [Example 253],< 0.75 µM
< 0.01 µM,≥ 10 °C,–,< 0.75 µM,80 to 90%,< 0.75 µM,≥ 10 µM,CNC(=O)c1cnc(OC)c(NCC#Cc2nc3c(N[C@@H]4CCN(C)C[C@@H]4F)nccn3c2SC(F)(F)F)c1 [Example 254],< 0.75 µM
< 0.01 µM,≥ 10 °C,≥ 10 °C,< 0.75 µM,> 90%,< 0.75 µM,8 to 10 µM,CNC(=O)c1cnc(OC)c(NCC#Cc2cc3c(N[C@@H]4CCN(C)C[C@@H]4F)nccn3c2SC(F)(F)F)c1 [Example 255],< 0.75 µM
< 0.01 µM,≥ 10 °C,–,< 0.75 µM,> 90%,< 0.75 µM,5 to 8 µM,CNC(=O)c1cnc(OC)c(NCC#Cc2cc3c(N[C@@H]4CCN(C)C[C@@H]4F)cccn3c2SC(F)(F)F)c1 [Example 256],< 0.75 µM
< 0.01 µM,≥ 10 °C,–,< 0.75 µM,80 to 90%,< 0.75 µM,≥ 10 µM,COc1cc(P(C)(C)=O)ccc1NCC#Cc1cc2c(N[C@@H]3CCN(C)C[C@@H]3F)nccn2c1SC(F)F [Example 257],< 0.75 µM
< 0.01 µM,≥ 10 °C,–,< 0.75 µM,70 to 80%,< 0.75 µM,≥ 10 µM,CNC(=O)c1cnc(OC)c(NCC#Cc2nc3c(N[C@@H]4CCNC[C@@H]4F)cccn3c2SC(F)(F)F)c1 [Example 258],< 0.75 µM
< 0.01 µM,≥ 10 °C,–,< 0.75 µM,80 to 90%,< 0.75 µM,8 to 10 µM,CNC(=O)c1cnc(OC)c(NCC#Cc2nn3c(N[C@@H]4CCN(C)C[C@@H]4F)cccc3c2SC(F)(F)F)c1 [Example 260],< 0.75 µM
< 0.01 µM,5 to 10 °C,≥ 10 °C,1.5 to 3 µM,70 to 80%,0.75 to 1.5 µM,≥ 10 µM,CNC(=O)c1cnc(OC)c(NCC#Cc2nc3c(N[C@@H]4CCN(C)C[C@@H]4F)cccn3c2CC(F)(F)F)c1 [Example 261],< 0.75 µM
< 0.01 µM,≥ 10 °C,≥ 10 °C,< 0.75 µM,70 to 80%,< 0.75 µM,8 to 10 µM,CNC(=O)c1cnc(OC)c(NCC#Cc2nc3c(N[C@@H]4C[C@H]5CC[C@H](N5)[C@@H]4F)cccn3c2SC(F)(F)F)c1 [Example 264],< 0.75 µM
< 0.01 µM,≥ 10 °C,≥ 10 °C,< 0.75 µM,> 90%,< 0.75 µM,< 5 µM,CNC(=O)c1cnc(OC)c(NCC#Cc2nn3c(N[C@@H]4CCN(C)C[C@@H]4F)cccc3c2SC(F)F)c1 [Example 268],< 0.75 µM
< 0.01 µM,≥ 10 °C,5 to 10 °C,< 0.75 µM,70 to 80%,< 0.75 µM,< 5 µM,CNC(=O)c1ccc(OC)c(NCC#Cc2nn3c(N[C@@H]4C[C@H]5CC[C@H](N5)[C@@H]4F)cccc3c2SC(F)(F)F)c1 [Example 269],< 0.75 µM
< 0.01 µM,≥ 10 °C,–,< 0.75 µM,80 to 90%,< 0.75 µM,< 5 µM,CNC(=O)c1cnc(OC)c(NCC#Cc2nn3c(N[C@@H]4CCNC[C@@H]4F)cccc3c2SC(F)(F)F)c1 [Example 270],< 0.75 µM
< 0.01 µM,≥ 10 °C,–,< 0.75 µM,> 90%,< 0.75 µM,≥ 10 µM,CNC(=O)c1cc(NCC#Cc2nc3c(N[C@@H]4CCN(C)C[C@@H]4F)cccn3c2SC(F)(F)F)c2nccn2c1 [Example 277],< 0.75 µM
< 0.01 µM,≥ 10 °C,–,< 0.75 µM,80 to 90%,< 0.75 µM,≥ 10 µM,CNC(=O)c1ccc(NCC#Cc2nc3c(N[C@@H]4C[C@@H]5COC[C@H]([C@@H]4F)N5C)cccn3c2SC(F)(F)F)c(OC)c1 [Example 283],< 0.75 µM
< 0.01 µM,≥ 10 °C,≥ 10 °C,< 0.75 µM,80 to 90%,< 0.75 µM,< 5 µM,CNC(=O)c1ccc(OC)c(NCC#Cc2nn3c(N[C@@H]4C[C@H]5CC[C@@H]([C@@H]4F)N5C)cccc3c2SC(F)(F)F)c1 [Example 284],< 0.75 µM
< 0.01 µM,≥ 10 °C,≥ 10 °C,< 0.75 µM,80 to 90%,< 0.75 µM,5 to 8 µM,CCNC(=O)c1ccc(OC)c(NCC#Cc2nn3c(N[C@@H]4CCN(C)C[C@@H]4F)cccc3c2SC(F)(F)F)c1 [Example 285],< 0.75 µM
< 0.01 µM,≥ 10 °C,–,< 0.75 µM,80 to 90%,< 0.75 µM,< 5 µM,CNC(=O)c1ccc(OC)c(NCC#Cc2nn3c(N[C@H]4C[C@@H]5CC[C@@H](N5)[C@H]4F)cccc3c2SC(F)(F)F)c1 [Example 287],< 0.75 µM
< 0.01 µM,≥ 10 °C,–,< 0.75 µM,80 to 90%,< 0.75 µM,< 5 µM,CNC(=O)c1ccc(OC)c(NCC#Cc2nn3c(N[C@H]4C[C@@H]5CC[C@H]([C@H]4F)N5C)cccc3c2SC(F)(F)F)c1 [Example 288],< 0.75 µM
< 0.01 µM,≥ 10 °C,≥ 10 °C,< 0.75 µM,> 90%,< 0.75 µM,5 to 8 µM,CNC(=O)c1ccc(OC)c(NCC#Cc2cc3c(N[C@@H]4CCNC[C@@H]4F)nccn3c2SC(F)(F)F)c1 [Example 289],< 0.75 µM
< 0.01 µM,≥ 10 °C,–,< 0.75 µM,> 90%,< 0.75 µM,≥ 10 µM,CCNC(=O)c1ccc(OC)c(NCC#Cc2cc3c(N[C@@H]4CCN(C)C[C@@H]4F)nccn3c2SC(F)(F)F)c1 [Example 290],< 0.75 µM
< 0.01 µM,≥ 10 °C,≥ 10 °C,< 0.75 µM,> 90%,< 0.75 µM,≥ 10 µM,CCNC(=O)c1cnc(OC)c(NCC#Cc2cc3c(N[C@@H]4CCN(C)C[C@@H]4F)nccn3c2SC(F)(F)F)c1 [Example 291],< 0.75 µM
